Reference: ChEMBL document CHEMBL4371026, “Prodrugs of the cancer cell selective anti-cancer agent (Z)-2-(1H-indol-3-yl)-3-(isoquinolin-5-yl)acrylonitrile (A131) are orally efficacious in a mouse model of resistant colon cancer” (Bioorg Med Chem Lett, 2019)
Active and inactive are the calls of the source. No cut-off for these calls is given here.

How the values were obtained:
BJ [1] = assay: Induction of mitosis in transformed human BJ cells assessed as increase in pH3 Ser10 expression at 5 uM after 24 hrs by Western blot analysis relative to control; assay type: functional
BJ [2] = assay: Induction of autophagy in transformed human BJ cells assessed as increase in LC3-2 to LC3-1 ratio at 5 uM after 24 hrs by Western blot analysis relative to control; assay type: functional
HCT-15 [3] = assay: Anticancer activity against paclitaxel-resistant human HCT15 cells xenografted in BALB/c athymic mouse assessed as tumor growth inhibition at 40 mg/kg, ip administered twice a day for 12 days; assay type: functional, organism-based
HCT-15 [4] = assay: Anticancer activity against paclitaxel-resistant human HCT15 cells xenografted in BALB/c athymic mouse assessed as formation of misaligned chromosomes with multipolar spindles at 40 mg/kg, ip or 80 mg/kg, po administered twice a day for 12 days by immunohistochemical analysis; assay type: functional, organism-based
HCT-15 [5] = assay: Anticancer activity against paclitaxel-resistant human HCT15 cells xenografted in BALB/c athymic mouse assessed as cell death at 40 mg/kg, ip or 80 mg/kg, po administered twice a day for 12 days by TUNEL staining based assay; assay type: functional, organism-based
HCT-15 [6] = assay: Anticancer activity against paclitaxel-resistant human HCT15 cells xenografted in BALB/c athymic mouse assessed as tumor volume at 20 mg/kg, ip administered twice a day for 12 days measured on day 12 (reference value: 779 +/- 144 mm3); assay type: functional
HCT-15 [7] = assay: Anticancer activity against paclitaxel-resistant human HCT15 cells xenografted in BALB/c athymic mouse assessed as tumor volume at 20 mg/kg, ip administered twice a day for 12 days measured on day 9 (reference value: 546 +/- 87 mm3); assay type: functional
HCT-15 [8] = assay: Anticancer activity against paclitaxel-resistant human HCT15 cells xenografted in BALB/c athymic mouse assessed as tumor volume at 20 mg/kg, ip administered twice a day for 12 days measured on day 5 (reference value: 329 +/- 45 mm3); assay type: functional
HCT-15 [9] = assay: Anticancer activity against paclitaxel-resistant human HCT15 cells xenografted in BALB/c athymic mouse assessed as tumor volume at 20 mg/kg, ip administered twice a day for 12 days measured on day 3 (reference value: 180 +/- 36 mm3); assay type: functional
HCT-15 [10] = assay: Anticancer activity against paclitaxel-resistant human HCT15 cells xenografted in BALB/c athymic mouse assessed as tumor volume at 20 mg/kg, ip administered twice a day for 12 days measured on day 7 (reference value: 495 +/- 109 mm3); assay type: functional
HCT-15 [11] = assay: Anticancer activity against paclitaxel-resistant human HCT15 cells xenografted in BALB/c athymic mouse assessed as tumor volume at 20 mg/kg, ip administered twice a day for 12 days measured on day 1 (reference value: 110 +/- 11 mm3); assay type: functional
HCT-15 [12] = assay: Anticancer activity against paclitaxel-resistant human HCT15 cells xenografted in BALB/c athymic mouse assessed as tumor growth inhibition at 20 mg/kg, ip administered twice a day for 12 days; assay type: functional, organism-based
[13] = Prodrug conversion in pH 7.4 10% FBS assessed as formation of A131 measured at 3 hrs by LC-MS/MS analysis relative to parent compound; assay type: ADME; conditions: cattle, pH 7.4, 3 h
[14] = Prodrug conversion in pH 7.4 10% FBS assessed as formation of A131 measured at 1 hr by LC-MS/MS analysis relative to parent compound; assay type: ADME; conditions: cattle, pH 7.4, 1 h
[15] = Half life in simplified simulated gastric fluid; assay type: ADME
[16] = Prodrug conversion in human plasma assessed as formation of A131 by measuring apparent half life; assay type: ADME, cell-free
[17] = Stability in simplified simulated gastric fluid assessed as parent compound remaining at 24 hrs; assay type: ADME; conditions: read-out: Stability
[18] = Stability in acidic pH assessed as compound hydrolysis; assay type: physicochemical
[19] = Half life in simulated gastric fluid TS; assay type: ADME
[20] = Stability in human plasma assessed as compound hydrolysis measured within 15 mins; assay type: ADME, cell-free; conditions: read-out: Drug degradation
[21] = Prodrug conversion in pH 7.4 phosphate buffer saline assessed as formation of A131 by measuring apparent half life; assay type: ADME
[22] = Prodrug conversion in mouse plasma assessed as formation of A131 by measuring apparent half life; assay type: ADME, cell-free
[23] = Stability in simulated gastric fluid TS assessed as parent compound remaining at 24 hrs; assay type: ADME; conditions: read-out: Stability
[24] = Prodrug conversion in pH 7.4 10% FBS assessed as formation of A131 measured at 6 hrs by LC-MS/MS analysis relative to parent compound; assay type: ADME; conditions: cattle, pH 7.4, 6 h
[25] = Prodrug conversion in pH 7.4 10% FBS assessed as formation of A131 measured at 2 hrs by LC-MS/MS analysis relative to parent compound; assay type: ADME; conditions: cattle, pH 7.4, 2 h
[26] = Prodrug conversion in pH 7.4 10% FBS assessed as formation of A131 by measuring apparent half life; assay type: ADME; conditions: cattle

For `CC(C)(C)OC(=O)N1CCC(C(=O)n2cc(/C(C#N)=C/c3cccc4cnccc34)c3ccccc32)CC1`, the “fold change (FC)” value (BJ [1]) was 16.2 and the “fold change (FC)” value (BJ [2]) was 5.2.
In the case of `CN1CCN(CC(=O)n2cc(/C(C#N)=C/c3cccc4cnccc34)c3ccccc32)CC1` [listing 1 of 2 here], the TGI (HCT-15 [3]) is reported as “Active”, the Activity (HCT-15 [4]) is reported as “Active” and the Activity (HCT-15 [5]) is reported as “Active”.
With `N#C/C(=C\c1cccc2cnccc12)c1cn(C(=O)CCN)c2ccccc12` the “fold change (FC)” value (BJ [1]) was 2.1 and the “fold change (FC)” value (BJ [2]) was 4.1.
For `Cn1cc(/C(C#N)=C/c2cccc3cnccc23)c2ccccc21`, the “fold change (FC)” value (BJ [1]) was 1.1 and the “fold change (FC)” value (BJ [2]) was 1.6.
`Cl.N#C/C(=C\c1cccc2cnccc12)c1c[nH]c2ccccc12` showed an Activity (HCT-15 [6]) of 289 mm3, an Activity (HCT-15 [7]) of 225 mm3 and an Activity (HCT-15 [8]) of 153 mm3. For the same compound, the Activity (HCT-15 [9]) was 125 mm3, the Activity (HCT-15 [10]) was 204 mm3 and the Activity (HCT-15 [11]) was 116 mm3.
In the case of `CS(=O)(=O)n1cc(/C(C#N)=C/c2cccc3cnccc23)c2ccccc21`, the “fold change (FC)” value (BJ [1]) is reported as 0.4 and the “fold change (FC)” value (BJ [2]) is reported as 0.8.
In the case of `COCCOCC(=O)n1cc(/C(C#N)=C/c2cccc3cnccc23)c2ccccc21`, the “fold change (FC)” value (BJ [1]) is reported as 12.8 and the “fold change (FC)” value (BJ [2]) is reported as 4.1.
For `N#C/C(=C\c1cccc2cnccc12)c1c[nH]c2ccccc12`, the TGI (HCT-15 [12]) was “Active”.
For `CN1CCN(CC(=O)n2cc(/C(C#N)=C/c3cccc4cnccc34)c3ccccc32)CC1` [listing 2 of 2 here], the “fold change (FC)” value [13] was 8.39, the “fold change (FC)” value [14] was 4.68 and the half-life [15] was 24 h. For the same compound, the “t1/2(app)” value [16] was 3.42 min, the remaining at 24 h [17] was 50% and the Stability [18] was “Stable”. For the same compound, the half-life [19] was 24 h, the “fold change (FC)” value (BJ [1]) was 11.8 and the metabolised at 0.25 h [20] was over 90%. The “t1/2(app)” value [21] was 5.3 h, the “t1/2(app)” value [22] was 5.28 min and the remaining at 24 h [23] was 50%. For the same compound, the “fold change (FC)” value [24] was 8.84, the “fold change (FC)” value [25] was 7.51 and the “fold change (FC)” value (BJ [2]) was 5. For the same compound, the “t1/2(app)” value [26] was 0.9 h.
